# Structures can show the parent of a compound that is named as a salt. Where two headings read alike, the source gives them in different places.
# Tests used:
# [1] = system: Pseudomonas aeruginosa BA; experiment: Experimental systemic septicaemia in the mouse; assay type: in vivo; conditions: sc, 96 h
# Procedure: (§1) 2. Experimental systemic septicaemia in the mouse
# (§2) An experimental systemic septicaemia was produced in albino mice weighing 16-20 g by intraperitoneally injecting into the experimental animals a sample of a dilute culture of the test organism which had been grown overnight. The sample administered is calculated such that the dosage administered is about 5-100 times greater than the dosage which is required to kill 50% of untreated experimental animals within 48 hours. The bacteria were injected as a suspension in the culture broth. Groups of 5 experimental animals each were used not only for the control, but also for the treatment for each dosage tested. The products in accordance with the invention were administered subcutaneously as a suspension in Tween 80 (2%), whereby the concentrations were chosen such that each experimental animal received 500 μl per administration. The respective concentrations were administered twice, namely 1 and 3 hours after the infection (in the case of P. aeruginosa three times, namely 1, 3 and 5 hours after the infection). The ED50 is that dosage which protects 50% of the experimental animals and was calculated by means of the Probit method on the basis of the survial rate after 4 days following the infection. The ED50 values in mg/kg s.c. (subcutaneous) for representatives of the class of substance in accordance with the invention are given in Table 2 hereinafter.
# [2] = system: E. coli 25922; experiment: Experimental systemic septicaemia in the mouse; assay type: in vivo; conditions: 96 h
# Procedure: as §1, §2
# [3] = system: S. pyogenes 15; experiment: Minimum inhibitory concentration in vitro, agar dilution method; assay type: cell-based; conditions: Streptococcus pyogenes
# Text: (§3) 1. Minimum Inhibitory Concentration in vitro
# (§4) The activities ascertained, minimum inhibitory concentration (MIC) in μg/ml, are compiled in Table 1 hereinafter: […]
# [4] = system: K. pneumoniae 418; experiment: as above; assay type: cell-based; conditions: Klebsiella pneumoniae
# Text: as §3, §4
# [5] = system: E. cloacae 908SSi; experiment: as above; assay type: cell-based; conditions: Enterobacter cloacae
# Text: as §3, §4
# [6] = system: P. aeruginosa BA; experiment: as above; assay type: cell-based; conditions: Pseudomonas aeruginosa
# Text: as §3, §4
# [7] = system: P. aeruginosa 27853; experiment: as above; assay type: cell-based; conditions: Pseudomonas aeruginosa
# Text: as §3, §4
# [8] = system: C. freundii 902; experiment: as above; assay type: cell-based; conditions: Citrobacter freundii
# Text: as §3, §4
# [9] = system: P. vulgaris 1028; experiment: as above; assay type: cell-based; conditions: Proteus vulgaris
# Text: as §3, §4
# [10] = system: E. cloacae 908R; experiment: as above; assay type: cell-based; conditions: Enterobacter cloacae
# Text: as §3, §4
# [11] = system: P. aeruginosa MK1184; experiment: as above; assay type: cell-based; conditions: Pseudomonas aeruginosa
# Text: as §3, §4
# [12] = system: S. marcescens 69438; experiment: as above; assay type: cell-based; conditions: Serratia marcescens
# Text: as §3, §4
# [13] = system: S. aureus 6538; experiment: as above; assay type: cell-based; conditions: Staphylococcus aureus
# Text: as §3, §4
# [14] = system: P. aeruginosa 799/WT; experiment: as above; assay type: cell-based; conditions: Pseudomonas aeruginosa
# Text: as §3, §4
# [15] = system: P. aeruginosa 799/61; experiment: as above; assay type: cell-based; conditions: Pseudomonas aeruginosa
# Text: as §3, §4
# [16] = system: E. cloacae P99; experiment: as above; assay type: cell-based; conditions: Enterobacter cloacae
# Text: as §3, §4
# [17] = system: P. mirabilis 2117; experiment: as above; assay type: cell-based; conditions: Proteus mirabilis
# Text: as §3, §4
# [18] = system: K. oxytoca 1082; experiment: as above; assay type: cell-based; conditions: Klebsiella oxytoca
# Text: as §3, §4
# [19] = system: S. pneumoniae BA; experiment: as above; assay type: cell-based; conditions: Streptococcus pneumoniae
# Text: as §3, §4
# [20] = system: E. coli 25922; experiment: as above; assay type: cell-based; conditions: Escherichia coli
# Text: as §3, §4
# [21] = system: E. aerogenes CF153; experiment: as above; assay type: cell-based; conditions: Klebsiella aerogenes; E. aerogenes CF153, agar dilution; read-out: MIC
# Text: as §3, §4
# [22] = S. pyogenes 15, agar dilution, read-out: MIC
# [23] = K. pneumoniae 418, agar dilution, read-out: MIC
# [24] = E. cloacae 908SSi, agar dilution, read-out: MIC
# [25] = P. aeruginosa BA, agar dilution, read-out: MIC
# [26] = P. aeruginosa 27853, agar dilution, read-out: MIC
# [27] = C. freundii 902, agar dilution, read-out: MIC
# [28] = P. vulgaris 1028, agar dilution, read-out: MIC
# [29] = E. cloacae 908R, agar dilution, read-out: MIC
# [30] = P. aeruginosa MK1184, agar dilution, read-out: MIC
# [31] = S. marcescens 69438, agar dilution, read-out: MIC
# [32] = S. aureus 6538, agar dilution, read-out: MIC
# [33] = P. aeruginosa 799/WT, agar dilution, read-out: MIC
# [34] = P. aeruginosa 799/61, agar dilution, read-out: MIC
# [35] = P. mirabilis 2117, agar dilution, read-out: MIC
# [36] = K. oxytoca 1082, agar dilution, read-out: MIC
# [37] = E. coli 25922, agar dilution, read-out: MIC
# [38] = P. aeruginosa BA, albino mice, s.c. 1, 3 and 5 hours after infection, survival after 4 days, read-out: ED50
# [39] = Escherichia coli, sc, E. coli 25922, albino mice, s.c. 1 and 3 hours after infection, survival after 4 days, read-out: ED50
# [40] = S. pneumoniae BA, agar dilution, read-out: MIC
Compound,MIC [16] [µg/mL],"MIC [3, 22] [µg/mL]","MIC [4, 23] [µg/mL]","MIC [5, 24] [µg/mL]","MIC [6, 25] [µg/mL]","MIC [7, 26] [µg/mL]","MIC [8, 27] [µg/mL]","MIC [9, 28] [µg/mL]","MIC [10, 29] [µg/mL]","MIC [11, 30] [µg/mL]","MIC [12, 31] [µg/mL]","MIC [13, 32] [µg/mL]","MIC [14, 33] [µg/mL]","MIC [15, 34] [µg/mL]","MIC [17, 35] [µg/mL]","MIC [18, 36] [µg/mL]","MIC [20, 37] [µg/mL]","ED50 [1, 38] [mg/kg]","ED50 [2, 39] [mg/kg]","MIC [19, 40] [µg/mL]",further results
"Cc1cc(SCC2=C(C(=O)[O-])N3C(=O)[C@@H](NC(=O)/C(=N\OCS(=O)(=O)c4ccc(O)c(O)c4)c4csc(N)n4)[C@H]3SC2)n2nc(COC(=O)c3ccc(O)c(O)c3)nc2n1.[Na+] [Example 7, (6R,7R)-7-[(Z)-2-(2-amino-4-thiazolyl)-2-[[[(3,4-dihydroxyphenyl)sulphonyl]methoxy]imino]acetamido]-3-[[[2-[[(3,4-dihydroxybenzoyl)oxy]methyl]-5-methyl-s-triazolo[1,5-a]pyrimidin-7-yl]thio]methyl]-8-oxo-5-thia-1-azabicyclo[4.2.0]oct-2-ene-2-carboxylic acid sodium salt (1:1)]",1,–,–,–,–,–,–,–,–,–,–,–,–,–,–,–,–,–,–,–,"ED50 [1]: 0.08 mg/kg; ED50 ([2]; Escherichia coli, 25922, sc): < 0.3 mg/kg; MIC [3]; 15: 4 µg/mL; MIC [4]; 418: < 0.1 µg/mL; MIC ([5]; 908SSI): 4 µg/mL; MIC [6]: 0.12 µg/mL; MIC [7]; 27853: 1 µg/mL; MIC [8]; 902: 0.12 µg/mL; MIC [9]; 1028: 0.12 µg/mL; MIC ([10]; 908R): 2 µg/mL; MIC ([11]; MK1184): < 0.1 µg/mL; MIC [12]; 69438: 0.12 µg/mL; MIC [13]; 6538: 32 µg/mL; MIC ([14]; 799/WT): 0.5 µg/mL; MIC ([15]; 799/61): 0.25 µg/mL; MIC [17]; 2117: 0.12 µg/mL; MIC [18]; 1082: < 0.1 µg/mL; MIC [19]: 2 µg/mL; MIC [20]; 25922: < 0.1 µg/mL"
"CC(C)(O/N=C(\C(=O)N[C@@H]1C(=O)N2C(C(=O)O)=C(CSc3nc(-c4ccccc4)ncc3-c3ccc(O)c(O)c3)CS[C@H]12)c1csc(N)n1)C(=O)NO [Example 17, (6R,7R)-7-[(Z)-2-(2-amino-4-thiazolyl)-2-[[1-(hydroxycarbamoyl)-1-methylethoxy]imino]acetamido]-3-[[[5-(3,4-dihydroxyphenyl)-2-phenyl-4-pyrimidinyl]thio]methyl]-8-oxo-5-thia-1-azabicyclo[4.2.0]oct-2-ene-2-carboxylic acid]",16,0.12,0.25,8,2,1,0.5,0.25,1,8,0.5,> 32,2,< 0.1,0.5,2,< 0.1,–,–,–,MIC [21]: 0.25 µg/mL
"Nc1nc(/C(=N/OCc2cc(Cl)c(O)c(O)c2Cl)C(=O)N[C@@H]2C(=O)N3C(C(=O)O)=C(CSc4nc(-c5ccccc5)ncc4-c4ccc(O)c(O)c4)CS[C@H]23)cs1 [Example 18, (6R,7R)-7-[(Z)-2-(2-amino-4-thiazolyl)-2-[[(2,5-dichloro-3,4-dihydroxybenzyl)oxy]imino]acetamido]-3-[[[5-(3,4-dihydroxyphenyl)-2-phenyl-4-pyrimidinyl]thio]methyl]-8-oxo-5-thia-1-azabicyclo[4.2.0]oct-2-ene-2-carboxylic acid]",16,1,0.12,8,1,2,0.12,0.12,2,2,1,> 32,0.12,< 0.1,< 0.1,0.25,0.12,–,–,–,MIC [21]: 0.12 µg/mL
"CC(C)(O/N=C(\C(=O)N[C@@H]1C(=O)N2C(C(=O)O)=C(CS(=O)(=O)c3ccc(O)c(O)c3)CS[C@H]12)c1csc(N)n1)C(=O)NO [Example 21, (6R,7R)-7-[(Z)-2-(2-amino-4-thiazolyl)-2-[[(1-hydroxycarbamoyl)-1-methylethoxy]imino]acetamido]-3-[[(3,4-dihydroxyphenyl)sulphonyl]methyl]-8-oxo-5-thia-1-azabicyclo[4.2.0]oct-2-ene-2-carboxylic acid]",16,16,0.5,8,8,8,4,2,8,> 32,1,> 32,8,0.25,1,1,1,0.39,< 0.3,8,–
"Nc1nc(/C(=N/OCS(=O)(=O)c2ccc(O)c(O)c2)C(=O)N[C@@H]2C(=O)N3C(C(=O)O)=C(CS(=O)(=O)c4ccc(O)c(O)c4)CS[C@H]23)cs1 [Example 22, (6R,7R)-7-[(Z)-2-(2-amino-4-thiazolyl)-2-[[(3,4-dihydroxysulphonyl)methoxy]imino]acetamido]-3-[[(3,4-dihydroxyphenyl)sulphonyl]methyl]-8-oxo-5-thia-1-azabicyclo[4.2.0]oct-2-ene-2-carboxylic acid sodium salt]",32,16,0.5,16,> 32,32,16,16,32,> 32,16,> 32,16,0.25,16,0.5,8,1.8,< 0.05,16,–
"CC(C)(O/N=C(\C(=O)N[C@@H]1C(=O)N2C(C(=O)O)=C(CS(=O)(=O)c3ccc(O)c(O)c3)CS[C@H]12)c1csc(N)n1)C(=O)NNC(=O)c1ccc(O)c(O)c1 [Example 47, (6R,7R)-7-[(Z)-2-(2-amino-4-thiazolyl)-2-[[1-[3-(3,4-dihydroxybenzoyl)carbazoyl]-1-methylethoxy]imino]acetamido]-3-[[(3,4-dihydroxyphenyl)sulphonyl]methyl]-8-oxo-5-thia-1-azabicyclo[4.2.0]oct-2-ene-2-carboxylic acid]",16,1,< 0.1,8,4,4,0.5,0.25,1,> 32,0.25,32,4,0.25,0.12,0.25,0.12,0.1,< 0.1,1,–
